The values below come from article PMC5354814, “In silico and in vitro drug screening identifies new therapeutic approaches for Ewing sarcoma” (Oncotarget, 2016).

Common to all, as to assay: Hits validation, dose-response cell proliferation (CellTiter-Glo)
Common to all, as to format: cell-based

Assay [1] deals with A673. The following applies: 12-point dose-response 50 μmol/L to 1 nmol/L, mean ± SD. Here is the method:
(§1) For hits validation and combination study, cells were harvested and aliquoted into 384-well plates at concentrations of 750–1,500 cells per well in a total of 20 μl/well using a Matrix Wellmate (Thermo Scientific). Five μl of culture media containing either vehicles or drug were added to each well the next day (drug concentrations range from 1 nmol/L to 50 μmol/L). For combination study, selected drugs were archived in robotically accessible plates, to which media was added in preparation for addition to master plates by a Nimbus 96 liquid-dispensing workstation (Hamilton). Liquid transfers to dilution and assay plates were handled using the same workstation. Each 384-well master plate contained four 9 by 9 dose-matrix blocks, with eight serial two-fold dilutions (concentrations range from 7.8 nmol/L to 1 μmol/L). Additional wells were reserved for untreated, and vehicle-treated control wells. Cell proliferation was evaluated using Cell-Titer Glo® reagents (Promega). IC50 values were determined for each drug using SigmaPlot (Systat Software). The combination index values were calculated using SigmaPlot (Systat Software) and CompuSyn.

Assay [2] concerns CHLA-258. Particulars: 12-point dose-response 50 μmol/L to 1 nmol/L, mean ± SD. Here is the method: as §1
Assay [3] deals with COG-E-352. Particulars: 12-point dose-response 50 μmol/L to 1 nmol/L, mean ± SD. As for the experimental part: as §1
Assay [4] concerns Hs 822.T. The following applies: control cell line, 12-point dose-response, mean ± SD. As for the experimental part: as §1
Assay [5] concerns Hs 863.T. The following applies: control cell line, 12-point dose-response, mean ± SD. As for the experimental part: as §1
In assay [6] the test system is RD-ES. Particulars: 12-point dose-response 50 μmol/L to 1 nmol/L, mean ± SD. Here is the method: as §1
In assay [7] the test system is SK-ES-1. Particulars: 12-point dose-response 50 μmol/L to 1 nmol/L, mean ± SD. As for the experimental part: as §1
Assay [8] concerns TC-71. The following applies: 12-point dose-response 50 μmol/L to 1 nmol/L, mean ± SD. As for the experimental part:
as §1

For assay [9], the system named is Hs 919.T. The following applies: control cell line, 12-point dose-response, mean ± SD. As for the experimental part:
These drugs were chosen based on their known mechanisms and safety profiles. We also tested the synergy between these drug hits (Supplementary Figures S6–S11). […] We evaluated the anti-proliferation effect in combination treatments using the EWS and control cell lines.
as §1

Regarding `O=C(Nc1ccc([N+](=O)[O-])cc1Cl)c1cc(Cl)ccc1O` [Niclosamide], the IC50 turned out to be 7.02 ± 1.23 µM in assay [1] (Homo sapiens, A673); 0.7 ± 0.14 µM in [2]; 0.42 ± 0.07 µM in [3]; 15.2 ± 3.51 µM in assay [4]; 10.5 ± 2.66 µM in assay [5]; 8.54 ± 1.55 µM in [6] (RD-ES). Moreover, the half-maximal inhibitory concentration (IC50) in assay [7] (Homo sapiens, SK-ES1) stood at 12.5 ± 2.36 µM; in [8] (TC-71), 0.79 ± 0.47 µM; in assay [9] it was 10.6 ± 2.84 µM.
Turning to `COc1cc2nc(N3CCN(C(=O)C4COc5ccccc5O4)CC3)nc(N)c2cc1OC` (stereo not drawn) [Doxazosin], the half-maximal inhibitory concentration (IC50) is 5.6 ± 1.52 µM in assay [1] (Homo sapiens, A673); 16.1 ± 6.78 µM in assay [2]; 17.1 ± 6.58 µM in assay [3]; 15.7 ± 2.12 µM in assay [4]; 14.6 ± 3.02 µM in assay [5]; more than 25 µM in assay [6] (RD-ES). The half-maximal inhibitory concentration (IC50) in assay [7] (Homo sapiens, SK-ES1) is 20.4 ± 5.87 µM; in assay [8] (TC-71), 22.5 ± 9.35 µM; in assay [9], 18.5 ± 3.27 µM.
Regarding `CC[C@]1(O)C[C@@H]2CN(CCc3c([nH]c4ccccc34)[C@@](C(=O)OC)(c3cc4c(cc3OC)N(C)[C@H]3[C@@](O)(C(N)=O)[C@H](O)[C@]5(CC)C=CCN6CC[C@]43[C@@H]65)C2)C1` [Vindesine], the IC50 is less than 0.003 µM in [1] (Homo sapiens, A673); less than 0.003 µM in assay [2]; less than 0.003 µM in assay [3]; 0.25 ± 0.01 µM in assay [4]; 0.28 ± 0.01 µM in assay [5]; less than 0.003 µM in [6] (RD-ES). The 50% inhibitory concentration (IC50) is less than 0.003 µM in assay [7] (Homo sapiens, SK-ES1); less than 0.003 µM in assay [8] (TC-71); 4.58 ± 0.45 µM in assay [9].
In the case of `COc1cc2nc(N(C)CCCNC(=O)C3CCCO3)nc(N)c2cc1OC` (stereo not drawn) [Alfuzosin], the half-maximal inhibitory concentration (IC50) was more than 50 µM in [1] (Homo sapiens, A673); more than 50 µM in [2]; more than 50 µM in assay [3]; more than 50 µM in assay [4]; more than 50 µM in [5]; more than 50 µM in assay [6] (RD-ES). The IC50 in assay [7] (Homo sapiens, SK-ES1) is more than 50 µM; in assay [8] (TC-71), more than 50 µM; in [9], more than 50 µM.
For the molecule `CC1=CC(=O)c2ccccc2C1=O` [Menadione], the concentration for half-maximal inhibition (IC50) in [1] (Homo sapiens, A673) was determined as 6.8 ± 1.35 µM; in assay [2], 3.64 ± 2.08 µM; in [3] it was 5.62 ± 1.31 µM; in [4] it was 12.2 ± 2.12 µM; in [5], 14.2 ± 3.2 µM; in assay [6] (RD-ES), 10.6 ± 3.2 µM. For the same molecule, the half-inhibitory concentration (IC50) in [7] (Homo sapiens, SK-ES1) amounted to 5.56 ± 1.24 µM; in [8] (TC-71) it was 2.94 ± 3.48 µM; in [9] it was 15.8 ± 2.35 µM.
In the case of `COC1=C2C[C@@H](C)C[C@H](OC)[C@H](O)[C@@H](C)/C=C(\C)[C@H](OC(N)=O)[C@@H](OC)/C=C\C=C(/C)C(=O)NC(=CC1=O)C2=O` [Geldanamycin], the IC50 in assay [1] (Homo sapiens, A673) is 1.93 ± 0.05 µM; in [2], less than 0.003 µM; in assay [3], less than 0.003 µM; in assay [4], more than 20 µM; in assay [5], more than 20 µM; in [6] (RD-ES), 0.05 ± 0.003 µM. In addition, the IC50 in [7] (Homo sapiens, SK-ES1) was 0.03 ± 0.002 µM; in assay [8] (TC-71) it was less than 0.003 µM; in [9], more than 20 µM.
For the molecule `c1coc(CNc2ncnc3[nH]cnc23)c1` [Kinetin], the IC50 in [1] (Homo sapiens, A673) is more than 50 µM; in [2], more than 50 µM; in [3] it was more than 50 µM; in [4], more than 50 µM; in assay [5], more than 50 µM; in assay [6] (RD-ES), more than 50 µM. The half-inhibitory concentration (IC50) is more than 50 µM in assay [7] (Homo sapiens, SK-ES1); more than 50 µM in [8] (TC-71); more than 50 µM in assay [9].
For `OCCN1CCN(CCCN2c3ccccc3Sc3ccc(C(F)(F)F)cc32)CC1` [Fluphenzaine], the IC50 stood at 10.5 ± 2.89 µM in [1]; 19 ± 6.79 µM in assay [2]; 16.1 ± 7.51 µM in assay [3]; 22.7 ± 7.23 µM in [4]; 20.5 ± 2.88 µM in [5]; 14.3 ± 3.21 µM in assay [6]. Besides, the IC50 in assay [7] came out at 16.3 ± 3.66 µM; in [8], 17 ± 6.68 µM; in assay [9] it was 15.5 ± 3.68 µM.
With `O=C(O)CCC(=O)c1ccc(-c2ccccc2)cc1` [Fenbufen], the IC50 was more than 50 µM in [1] (Homo sapiens, A673); more than 50 µM in assay [2]; more than 50 µM in [3]; more than 50 µM in [4]; more than 50 µM in [5]; more than 50 µM in assay [6] (RD-ES). Moreover, the IC50 in [7] (Homo sapiens, SK-ES1) is more than 50 µM; in assay [8] (TC-71), more than 50 µM; in [9], more than 50 µM.
In the case of `CN(C)CCCN1c2ccccc2Sc2ccc(Cl)cc21` [Chlorpromazine], the IC50 was 10.6 ± 2.15 µM in [1] (Homo sapiens, A673); 15.3 ± 4.55 µM in assay [2]; 16.1 ± 2.29 µM in assay [3]; 16.8 ± 3.22 µM in [4]; 18.4 ± 3.07 µM in [5]; more than 25 µM in assay [6] (RD-ES). Besides, the IC50 was more than 25 µM in [7] (Homo sapiens, SK-ES1); 17.6 ± 8.63 µM in assay [8] (TC-71); 15.5 ± 2.09 µM in assay [9].
With `COc1cccc2c1C(=O)c1c(O)c3c(c(O)c1C2=O)C[C@@](O)(C(C)=O)C[C@@H]3O[C@H]1C[C@H](N)[C@H](O)[C@H](C)O1` [Daunorubicin], the half-maximal inhibitory concentration (IC50) is 0.05 ± 0.02 µM in assay [1] (Homo sapiens, A673); less than 0.003 µM in assay [2]; less than 0.003 µM in [3]; 0.15 ± 0.12 µM in assay [4]; 0.18 ± 0.08 µM in assay [5]; 0.05 ± 0.03 µM in assay [6] (RD-ES). The IC50 in [7] (Homo sapiens, SK-ES1) was 0.04 ± 0.03 µM; in assay [8] (TC-71), 0.0046 ± 0.0004 µM; in assay [9] it was 0.42 ± 0.15 µM.
Take `COc1cc(NC(C)CCCN)c2ncccc2c1` (stereo not drawn) [Primaquine]: the IC50 in assay [1] (Homo sapiens, A673) is 32.5 ± 6.58 µM; in [2] it was 7.14 ± 2.21 µM; in [3] it was 13.3 ± 4.09 µM; in assay [4] it was more than 25 µM; in assay [5] it was more than 25 µM; in assay [6] (RD-ES), more than 25 µM. Further, the half-maximal inhibitory concentration (IC50) in assay [7] (Homo sapiens, SK-ES1) is more than 25 µM; in assay [8] (TC-71), 14.3 ± 3.71 µM; in assay [9], more than 50 µM.
On to `CN1C[C@H](CO)C=C2c3cccc4[nH]cc(c34)C[C@H]21` [Lysergol], for which the IC50 in [1], in [2], in assay [3], in assay [4], in assay [5] and in assay [6] was more than 50 µM throughout. Also, the IC50 in assay [7], in assay [8] and in assay [9] was more than 50 µM in each case.
With `COc1c2ccoc2nc2c(OC)c(OCC(O)C(C)(C)O)ccc12` (stereo not drawn) [Evoxine], the IC50 in assay [1] (Homo sapiens, A673) is more than 50 µM; in assay [2] it was more than 50 µM; in [3], more than 50 µM; in assay [4] it was more than 50 µM; in [5] it was more than 50 µM; in assay [6] (RD-ES), more than 50 µM. In addition, the IC50 in assay [7] (Homo sapiens, SK-ES1) is more than 50 µM; in assay [8] (TC-71), more than 50 µM; in [9], more than 50 µM.
As to `Nc1ccccc1NC(=O)c1ccc(CNC(=O)OCc2cccnc2)cc1` [MS275], the half-maximal inhibitory concentration (IC50) was 2.5 ± 1.02 µM in assay [1] (Homo sapiens, A673); 0.15 ± 0.03 µM in assay [2]; 1.47 ± 0.54 µM in assay [3]; more than 25 µM in assay [4]; more than 25 µM in [5]; 2 ± 0.85 µM in assay [6] (RD-ES). For the same molecule, the half-inhibitory concentration (IC50) in assay [7] (Homo sapiens, SK-ES1) is 2.4 ± 1.01 µM; in assay [8] (TC-71) it was 1.53 ± 0.49 µM; in [9] it was more than 50 µM.
With `CN(C)CCOC(=O)COc1ccc(Cl)cc1` [Meclofenoxate], the IC50 in assay [1] (Homo sapiens, A673) was more than 50 µM; in [2], more than 50 µM; in assay [3], more than 50 µM; in assay [4] it was more than 50 µM; in assay [5], more than 50 µM; in assay [6] (RD-ES), more than 50 µM. The IC50 in assay [7] (Homo sapiens, SK-ES1) is more than 50 µM; in assay [8] (TC-71) it was more than 50 µM; in [9], more than 50 µM.
Regarding `COc1ccc(C[C@H]2NC[C@H](O)[C@H]2OC(C)=O)cc1` [Anisomycin], the 50% inhibitory concentration (IC50) came to 0.12 ± 0.01 µM in [1]; 0.08 ± 0.01 µM in assay [2]; 0.02 ± 0.01 µM in assay [3]; 0.15 ± 0.05 µM in assay [4]; 0.2 ± 0.01 µM in assay [5]; 0.15 ± 0.02 µM in [6]. The figures for the half-inhibitory concentration (IC50) in [7], in [8] and in assay [9] were 0.2 ± 0.01 µM, 0.04 ± 0.01 µM and 0.15 ± 0.02 µM, respectively.
